Assay results reported in paper PMC3914206.

Experiments:
Type in all cases: binding
Conditions in all cases: Compound Concentration 10 µM
panel of 442 kinases [1] = target: T1, panel of 442 kinases (Homo sapiens, UniProt O96013)
T1 construct: purchased KINOMEscan
Description: (§1) We assessed the selectivity of members of this scaffold using the KINOMEscan methodology across a near comprehensive panel of 442 kinases [[18,27]].

panel of 442 kinases [2] = target: T2, panel of 442 kinases (Homo sapiens, UniProt P42684)
T2 construct: purchased KINOMEscan
Description: as §1

panel of 442 kinases [3] = target: T3, panel of 442 kinases (Homo sapiens, UniProt Q9H1R3)
T3 construct: purchased KINOMEscan
Description: as §1

panel of 442 kinases [4] = target: T4, panel of 442 kinases (Homo sapiens, UniProt Q15746)
T4 construct: purchased KINOMEscan
Description: as §1

T1 sequence (O96013 whole entry): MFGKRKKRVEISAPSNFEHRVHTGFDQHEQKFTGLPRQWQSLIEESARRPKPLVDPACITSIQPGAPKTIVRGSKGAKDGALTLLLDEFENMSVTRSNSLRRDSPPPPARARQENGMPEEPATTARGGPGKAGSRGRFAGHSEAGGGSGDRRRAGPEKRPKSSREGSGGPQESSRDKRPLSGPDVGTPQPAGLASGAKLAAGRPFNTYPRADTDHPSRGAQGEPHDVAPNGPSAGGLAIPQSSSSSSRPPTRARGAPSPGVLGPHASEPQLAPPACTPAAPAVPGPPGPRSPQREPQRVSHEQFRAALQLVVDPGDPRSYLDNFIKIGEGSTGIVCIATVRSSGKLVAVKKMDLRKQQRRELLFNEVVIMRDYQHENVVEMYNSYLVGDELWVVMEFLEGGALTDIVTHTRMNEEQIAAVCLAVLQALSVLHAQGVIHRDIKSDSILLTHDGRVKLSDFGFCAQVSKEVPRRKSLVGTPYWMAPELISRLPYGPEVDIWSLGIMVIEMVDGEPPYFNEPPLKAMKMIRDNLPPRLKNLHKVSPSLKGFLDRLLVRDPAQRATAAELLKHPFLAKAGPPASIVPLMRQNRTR
T2 sequence (P42684 whole entry): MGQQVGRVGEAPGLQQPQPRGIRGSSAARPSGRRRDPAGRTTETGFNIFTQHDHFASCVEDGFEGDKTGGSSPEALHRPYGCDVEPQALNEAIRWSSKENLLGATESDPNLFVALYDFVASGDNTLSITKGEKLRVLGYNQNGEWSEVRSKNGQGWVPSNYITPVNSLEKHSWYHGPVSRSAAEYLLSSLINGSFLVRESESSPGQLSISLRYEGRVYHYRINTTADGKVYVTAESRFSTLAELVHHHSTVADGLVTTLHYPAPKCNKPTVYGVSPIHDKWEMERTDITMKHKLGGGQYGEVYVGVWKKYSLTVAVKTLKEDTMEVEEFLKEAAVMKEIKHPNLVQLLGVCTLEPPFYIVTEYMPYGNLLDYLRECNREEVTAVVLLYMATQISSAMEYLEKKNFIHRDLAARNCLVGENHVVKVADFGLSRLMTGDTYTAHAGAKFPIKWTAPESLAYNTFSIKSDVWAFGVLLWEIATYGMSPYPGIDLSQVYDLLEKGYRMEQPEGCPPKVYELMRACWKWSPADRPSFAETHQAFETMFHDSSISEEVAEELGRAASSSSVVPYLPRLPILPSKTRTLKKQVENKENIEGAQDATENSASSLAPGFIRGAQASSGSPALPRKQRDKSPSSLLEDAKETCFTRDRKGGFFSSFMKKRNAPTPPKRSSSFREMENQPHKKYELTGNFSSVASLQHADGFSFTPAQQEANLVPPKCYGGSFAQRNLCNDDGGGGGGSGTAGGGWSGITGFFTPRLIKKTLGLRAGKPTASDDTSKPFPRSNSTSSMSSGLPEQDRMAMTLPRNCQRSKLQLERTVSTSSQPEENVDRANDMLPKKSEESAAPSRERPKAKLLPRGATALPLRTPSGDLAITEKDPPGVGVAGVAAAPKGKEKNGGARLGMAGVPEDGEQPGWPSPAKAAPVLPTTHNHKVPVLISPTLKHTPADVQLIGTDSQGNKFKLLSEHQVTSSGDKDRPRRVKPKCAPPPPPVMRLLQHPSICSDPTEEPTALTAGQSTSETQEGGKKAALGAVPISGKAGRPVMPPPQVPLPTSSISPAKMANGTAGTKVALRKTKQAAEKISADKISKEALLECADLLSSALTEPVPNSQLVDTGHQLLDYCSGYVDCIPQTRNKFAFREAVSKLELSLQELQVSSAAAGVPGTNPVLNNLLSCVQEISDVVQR
T4 sequence (Q15746 whole entry): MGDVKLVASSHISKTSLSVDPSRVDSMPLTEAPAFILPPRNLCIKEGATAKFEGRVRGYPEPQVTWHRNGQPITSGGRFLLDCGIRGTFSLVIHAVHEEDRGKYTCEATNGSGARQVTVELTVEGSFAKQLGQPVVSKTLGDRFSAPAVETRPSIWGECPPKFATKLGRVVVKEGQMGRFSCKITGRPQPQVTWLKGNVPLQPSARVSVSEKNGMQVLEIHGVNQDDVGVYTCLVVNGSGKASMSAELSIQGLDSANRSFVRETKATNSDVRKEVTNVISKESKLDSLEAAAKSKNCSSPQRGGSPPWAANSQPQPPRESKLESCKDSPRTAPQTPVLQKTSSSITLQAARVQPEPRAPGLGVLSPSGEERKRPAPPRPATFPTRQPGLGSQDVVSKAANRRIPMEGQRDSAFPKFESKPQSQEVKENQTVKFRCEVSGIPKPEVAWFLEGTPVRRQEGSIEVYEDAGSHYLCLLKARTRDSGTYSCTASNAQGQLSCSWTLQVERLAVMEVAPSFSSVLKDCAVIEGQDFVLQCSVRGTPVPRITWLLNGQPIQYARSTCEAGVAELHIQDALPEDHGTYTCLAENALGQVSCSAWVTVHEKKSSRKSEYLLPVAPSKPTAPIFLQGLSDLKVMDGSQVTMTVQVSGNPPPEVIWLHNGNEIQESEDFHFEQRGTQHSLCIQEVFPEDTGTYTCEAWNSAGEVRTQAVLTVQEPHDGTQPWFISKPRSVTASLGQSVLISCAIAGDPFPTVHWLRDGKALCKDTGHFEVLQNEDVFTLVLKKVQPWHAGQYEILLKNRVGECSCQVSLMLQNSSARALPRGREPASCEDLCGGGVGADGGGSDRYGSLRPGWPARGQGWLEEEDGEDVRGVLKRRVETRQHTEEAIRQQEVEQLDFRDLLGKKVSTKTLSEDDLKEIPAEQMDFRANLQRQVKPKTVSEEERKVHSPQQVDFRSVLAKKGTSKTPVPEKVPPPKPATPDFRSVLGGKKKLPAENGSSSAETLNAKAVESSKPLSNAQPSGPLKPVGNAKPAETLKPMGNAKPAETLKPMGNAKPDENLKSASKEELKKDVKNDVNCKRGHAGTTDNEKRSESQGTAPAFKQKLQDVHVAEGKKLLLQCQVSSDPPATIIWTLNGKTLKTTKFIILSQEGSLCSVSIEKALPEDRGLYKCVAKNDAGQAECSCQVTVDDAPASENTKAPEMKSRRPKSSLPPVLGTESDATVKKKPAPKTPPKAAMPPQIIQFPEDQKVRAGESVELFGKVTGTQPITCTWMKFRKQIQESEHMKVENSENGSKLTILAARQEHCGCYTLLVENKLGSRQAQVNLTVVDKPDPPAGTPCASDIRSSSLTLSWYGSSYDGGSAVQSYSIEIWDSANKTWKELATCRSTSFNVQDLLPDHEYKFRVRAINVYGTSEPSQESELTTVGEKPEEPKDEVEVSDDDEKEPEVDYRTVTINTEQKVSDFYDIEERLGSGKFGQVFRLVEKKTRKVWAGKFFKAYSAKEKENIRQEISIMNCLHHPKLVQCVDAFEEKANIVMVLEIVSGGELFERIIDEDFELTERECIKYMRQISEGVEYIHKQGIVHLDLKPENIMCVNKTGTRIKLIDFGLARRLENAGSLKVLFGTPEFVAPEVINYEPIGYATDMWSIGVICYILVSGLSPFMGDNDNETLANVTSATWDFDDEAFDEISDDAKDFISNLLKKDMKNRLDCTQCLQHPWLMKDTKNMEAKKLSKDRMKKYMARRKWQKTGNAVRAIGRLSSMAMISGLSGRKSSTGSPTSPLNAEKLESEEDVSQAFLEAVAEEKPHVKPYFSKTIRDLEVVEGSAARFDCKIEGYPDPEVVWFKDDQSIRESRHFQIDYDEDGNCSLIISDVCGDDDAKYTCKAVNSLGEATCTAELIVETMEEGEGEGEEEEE
T3 sequence (Q9H1R3 whole entry): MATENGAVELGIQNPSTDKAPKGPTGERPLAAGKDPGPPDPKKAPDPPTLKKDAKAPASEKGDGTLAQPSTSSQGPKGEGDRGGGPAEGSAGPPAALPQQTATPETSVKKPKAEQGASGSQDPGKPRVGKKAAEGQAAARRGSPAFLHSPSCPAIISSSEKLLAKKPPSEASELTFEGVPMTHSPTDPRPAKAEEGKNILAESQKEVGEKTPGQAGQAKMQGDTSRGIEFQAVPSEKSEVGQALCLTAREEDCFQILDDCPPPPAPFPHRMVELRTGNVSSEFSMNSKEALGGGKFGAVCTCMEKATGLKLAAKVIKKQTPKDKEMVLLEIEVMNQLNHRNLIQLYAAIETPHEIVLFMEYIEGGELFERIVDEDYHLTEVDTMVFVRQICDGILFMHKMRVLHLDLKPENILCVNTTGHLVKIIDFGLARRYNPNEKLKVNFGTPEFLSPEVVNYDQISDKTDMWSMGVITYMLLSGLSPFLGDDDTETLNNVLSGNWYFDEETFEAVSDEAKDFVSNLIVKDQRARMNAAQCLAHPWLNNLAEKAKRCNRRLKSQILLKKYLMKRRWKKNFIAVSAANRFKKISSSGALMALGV

Row | SMILES | KINOMEscan: PAK4 (panel of 442 kinases [1]) | KINOMEscan: ABL2 (panel of 442 kinases [2]) | KINOMEscan: MYLK2 (panel of 442 kinases [3]) | KINOMEscan: MYLK (panel of 442 kinases [4])
1 | COc1cc(C(=O)N2CCC(N3CCN(C)CC3)CC2)ccc1Nc1ncc2c(n1)N(C)c1ccccc1C(=O)N2C [15 (LRRK2-IN-1)] | 94 | 97 | 98 | 8.7
2 | CCOc1cc(C(=O)N2CCC(N3CCN(C)CC3)CC2)ccc1Nc1ncc2c(n1)N(C1CCCC1)c1ccccc1C(=O)N2C [Compound 26] | 100 | 100 | 100 | 98
3 | COc1cc(C(=O)N2CCC(N3CCN(C)CC3)CC2)ccc1Nc1ncc2c(n1)N1CCc3cccc(c31)C(=O)N2C [Compound 24] | – | – | 85 | 2.9
4 | COc1cc(C(=O)N2CCC(N3CCN(C)CC3)CC2)ccc1Nc1ncc2c(n1)N(C1CCCC1)c1ccccc1C(=O)N2C [Compound 25, 11-cyclopentyl-2-((2-methoxy-4-(4-(4-methylpiperazin-1-yl)piperidine-1-carbonyl)phenyl)amino)-5-methyl-5H-benzo[e]pyrimido[5,4-b][1,4]diazepin-6(11H)-one] | 91 | 100 | 100 | 73
